In PubChem BioAssay AID2060488 (Molecular Pharmacology Branch, DTP, NCI, 2025):

Tested on: 966289-007-R4-J1-PDC complex spheroid viability
Test: Anticancer human tumor 966289-007-R4-J1-PDC patient-derived pancreatic adenocarcinoma cell line growth inhibition [GQUAD]
Conditions: for IC50: curve of first compound; for viability, T/C: stronger effect = lower value
Excerpt: DNA G-quadruplex Stabilizer Agents in Combinations in Complex Spheroids
A high-throughput screen of multi-cell type tumor spheroids was designed to identify active combinations of DNA G-quadruplex stabilizer agents and targeted small molecules. Complex spheroids include a stromal component modeled by human endothelial cells (HUVEC) and fibroblasts modeled by human mesenchymal stem cells (MSCs). The concentration ranges selected for each drug and investigational agent were based upon clinically achievable concentrations if the clinical Cmax of the agent was known.
Compounds. The drugs and investigational agents: pidnarulex (CX-5461; NSC782164), APTO-253 (NSC789042), BRACO-19 (NSC847499), peposertib (NSC802822), ceralasertib (NSC780249), elimusertib (NSC800525), camonsertib (NSC841442), AZD-1390 (NSC803789), olaparib (NSC753686), talazoparib (NSC767125), ART-558 (NSC835418), sotorasib (NSC818433), MRTX-1133 (NSC836407), SN-38 (NSC673596), topotecan (NSC609699), etoposide (NSC141540), doxorubicin (NSC123127), gemcitabine (NSC613327), 5-fluorouracil (NSC19893), paclitaxel (NSC125973), vemurafenib (NSC761431), panobinostat (NSC761190), R-306465 (JNJ-16241199; NSC773264), adavosertib (NSC754352), TP-3654 (NSC805149), carboplatin (NSC241240), KSQ-4279 (NSC840948), and staurosporine (NSC755774) were obtained from the National Cancer Institute (NCI) Developmental Therapeutics Program Chemical Repository (34). The FDA-approved anticancer drug set is available from the NCI Developmental Therapeutics Program. […] The stock solutions were prepared in dimethyl sulfoxide (DMSO, Sigma-Aldrich, St. Louis, MO, cat. D2650) at 800-fold the tested concentration and stored at -70 degrees C prior to their use. All drugs and investigational agents were tested over a range starting from a high concentration at or near the clinical Cmax and decreasing in half-log increments. If the clinical Cmax for an agent had not been determined, the highest concentration tested was 10 microM.
2.3 Cell Culture. All cells were maintained in an incubator at 37 degrees C and 5% CO2 with 95% humidity. The PDC lines were cultured according to standard operating procedures established by the NCI PDMR. All PDCs were thawed and cultured in Matrigel-coated flasks prepared with a working solution of 1X Ham's F-12 nutrient mix, without supplementation (Invitrogen, cat. 11765054), 100 U/mL penicillin-streptomycin (Invitrogen, cat. 15140122), and 2.5% Matrigel (Corning Inc., cat. 354248) for the first three passages. The 857933-349-R-J2-PDC line was cultured in 6C/Colon 1B media, which includes advanced DMEM/F-12 (Thermo Fisher Scientific, cat. 12634028), 10 mM HEPES (Thermo Fisher Scientific, cat. 15630080), 1X GlutaMAX supplement (Thermo Fisher Scientific, cat. 35050061), 0.1 mg/mL primocin (InvivoGen, cat. ant-pm-2), 10% defined fetal bovine serum, heat inactivated (HyClone Laboratories Inc., cat. SH30070.03HI), 50% L-WRN conditioned media (ATCC, cat. CRL-3276), 1.25 mM N-Acetyl-L-cysteine (Sigma-Aldrich, cat. A9165), 10 mM nicotinamide (Sigma-Aldrich, cat. N0636), 1X B-27 supplement (Thermo Fisher Scientific, cat. 17504044), 1X N-2 supplement (Thermo Fisher Scientific, cat. 17502048), 10 microM Y-27632 dihydrochloride (Tocris Bioscience, cat. 1254), and 50 ng/mL human EGF recombinant protein (Thermo Fisher Scientific, cat. PHG0311). The 485176-168-R4-J1-PDC line was cultured in Panc media, which includes all 6C/Colon 1B media components plus 100 ng/mL human FGF-10 (Thermo Fisher Scientific, cat. 100-26), 500 nM SB-431542 (Selleckchem, cat. S1067), and gastrin (Tocris, cat. 3006).
[…]
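Further: spheroids exposed to the agents for seven days before readout.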
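Wherever viability, T/C is given: percent viability relative to DMSO vehicle control wells taken as 100%.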

Question: Which IC50 (second compound 0.0316 µM) does the source give for `CCc1c2c(nc3ccc(O)cc13)-c1cc3c(c(=O)n1C2)COC(=O)[C@]3(O)CC` + Cc1cnc(CNC(=O)c2c(=O)c3ccc(N4CCCN(C)CC4)nc3n3c2sc2ccccc23)cn1 here?
Answer: < 0.999 nM

Question: What about the IC50 (second compound 0.1 µM) of the same molecule?
Answer: < 0.999 nM

Question: And the IC50 (second compound 0.316 µM)?
Answer: < 0.999 nM

Question: What about the IC50 (second compound 1 µM) of the same molecule?
Answer: < 0.999 nM

Question: What about the IC50 (second compound 3.16 µM) of the same molecule?
Answer: < 0.999 nM

Question: And the IC50 (second compound 10 µM)?
Answer: < 0.999 nM

Question: What about the viability, T/C (second compound 0.0316 µM, first compound 0.000999 µM) of the same molecule?
Answer: 5.02%

Question: And the viability, T/C (second compound 0.0316 µM, first compound 0.00316 µM)?
Answer: 0.7%

Question: And the viability, T/C (second compound 0.0316 µM, first compound 0.00999 µM)?
Answer: 0.49%

Question: What about the viability, T/C (second compound 0.0316 µM, first compound 0.0316 µM) of the same molecule?
Answer: 0.4%

Question: What about the viability, T/C (second compound 0.0316 µM, first compound 0.0999 µM) of the same molecule?
Answer: 0.35%

Question: And the viability, T/C (second compound 0.0316 µM, first compound 0.316 µM)?
Answer: 0.36%

Question: And the viability, T/C (second compound 0.1 µM, first compound 0.000999 µM)?
Answer: 2.67%

Question: And the viability, T/C (second compound 0.1 µM, first compound 0.00316 µM)?
Answer: 0.71%

Question: And the viability, T/C (second compound 0.1 µM, first compound 0.00999 µM)?
Answer: 1.06%

Question: What about the viability, T/C (second compound 0.1 µM, first compound 0.0316 µM) of the same molecule?
Answer: 0.42%

Question: What about the viability, T/C (second compound 0.1 µM, first compound 0.0999 µM) of the same molecule?
Answer: 0.35%

Question: What about the viability, T/C (second compound 0.1 µM, first compound 0.316 µM) of the same molecule?
Answer: 0.46%

Question: What about the viability, T/C (second compound 0.316 µM, first compound 0.000999 µM) of the same molecule?
Answer: 2.26%

Question: What about the viability, T/C (second compound 0.316 µM, first compound 0.00316 µM) of the same molecule?
Answer: 0.87%

Question: And the viability, T/C (second compound 0.316 µM, first compound 0.00999 µM)?
Answer: 0.52%

Question: And the viability, T/C (second compound 0.316 µM, first compound 0.0316 µM)?
Answer: 0.5%

Question: And the viability, T/C (second compound 0.316 µM, first compound 0.0999 µM)?
Answer: 0.79%

Question: What about the viability, T/C (second compound 0.316 µM, first compound 0.316 µM) of the same molecule?
Answer: 0.41%

Question: And the viability, T/C (second compound 1 µM, first compound 0.000999 µM)?
Answer: 1.23%

Question: What about the viability, T/C (second compound 1 µM, first compound 0.00316 µM) of the same molecule?
Answer: 0.79%

Question: And the viability, T/C (second compound 1 µM, first compound 0.00999 µM)?
Answer: 0.82%

Question: What about the viability, T/C (second compound 1 µM, first compound 0.0316 µM) of the same molecule?
Answer: 0.08%

Question: What about the viability, T/C (second compound 1 µM, first compound 0.0999 µM) of the same molecule?
Answer: 0.63%

Question: And the viability, T/C (second compound 1 µM, first compound 0.316 µM)?
Answer: 0.12%

Question: What about the viability, T/C (second compound 3.16 µM, first compound 0.000999 µM) of the same molecule?
Answer: 0.43%

Question: What about the viability, T/C (second compound 3.16 µM, first compound 0.00316 µM) of the same molecule?
Answer: 0.09%

Question: And the viability, T/C (second compound 3.16 µM, first compound 0.00999 µM)?
Answer: 0.06%

Question: And the viability, T/C (second compound 3.16 µM, first compound 0.0316 µM)?
Answer: 0.05%

Question: What about the viability, T/C (second compound 3.16 µM, first compound 0.0999 µM) of the same molecule?
Answer: 0.12%

Question: What about the viability, T/C (second compound 3.16 µM, first compound 0.316 µM) of the same molecule?
Answer: 0.09%

Question: What about the viability, T/C (second compound 10 µM, first compound 0.000999 µM) of the same molecule?
Answer: 0.03%

Question: What about the viability, T/C (second compound 10 µM, first compound 0.00316 µM) of the same molecule?
Answer: 0.07%

Question: What about the viability, T/C (second compound 10 µM, first compound 0.00999 µM) of the same molecule?
Answer: 0.08%

Question: And the viability, T/C (second compound 10 µM, first compound 0.0316 µM)?
Answer: 0.07%

Question: What about the viability, T/C (second compound 10 µM, first compound 0.0999 µM) of the same molecule?
Answer: 1.27%

Question: And the viability, T/C (second compound 10 µM, first compound 0.316 µM)?
Answer: 0.1%
